Experimental findings from patent US9957273B2, “5-substituted 7- [4-(2-pyridyl)phenylmethylamino] -3-isopropylpyrazolo4,3-D]pyrimidine derivatives, use thereof as medicaments, and pharmaceutical compositions” (USTAV EXPERIMENTALNI BOTANIKY AV CR, V.V.I., priority 2015, dated 2018) are described below.

One experiment has as its target T1, CDK2/Cyclin E (Homo sapiens, UniProt P24941).
T1 construct: made in house; host or cells: Sf9 insect cells (baculovirus)
The experiment is described as follows: CDK2/Cyclin E kinase inhibition (33P-ATP, histone H1). The settings on record: 15 μM ATP. In kind it is biochemical. Here is the method: CDK2/Cyclin E kinase was produced in Sf9 insect cells via baculoviral infection and purified on a NiNTA column (Qiagen). The kinase reactions were assayed with 1 mg/mL histone H1 in the presence of 15 μM ATP, 0.05 μCi [γ-^33P]ATP and of the test compound in a final volume of 10 μL, all in a reaction buffer (60 mM HEPES-NaOH, pH 7.5, 3 mM MgCl2, 3 mM MnCl2, 3 μM Na-orthovanadate, 1.2 mM DTT, 2.5 μg/50 μl PEG20.000). CDK5/p35 was purchased from ProQinase GmbH. The kinase reactions were assayed with 1 mg/mL histone H1 in the presence of 0.15 μM ATP, 0.05 μCi [γ-^33P]ATP and of the test compound in a final volume of 10 μL, all in a reaction buffer (60 mM HEPES-NaOH, pH 7.5, 3 mM MgCl2, 3 mM MnCl2, 3 μM Na-orthovanadate, 1.2 mM DTT, 2.5 μg/50 μl PEG20.000).
(§1) The reactions were stopped by adding 5 μL of 3% aq H3PO4. Aliquots were spotted onto P-81 phosphocellulose (Whatman), washed 3× with 0.5% aq H3PO4 and finally air-dried.

The target in another experiment is T2, CDK5/p35 (Homo sapiens, UniProt Q00535).
T2 construct: purchased ProQinase GmbH
T2 sequence (Q00535 whole entry): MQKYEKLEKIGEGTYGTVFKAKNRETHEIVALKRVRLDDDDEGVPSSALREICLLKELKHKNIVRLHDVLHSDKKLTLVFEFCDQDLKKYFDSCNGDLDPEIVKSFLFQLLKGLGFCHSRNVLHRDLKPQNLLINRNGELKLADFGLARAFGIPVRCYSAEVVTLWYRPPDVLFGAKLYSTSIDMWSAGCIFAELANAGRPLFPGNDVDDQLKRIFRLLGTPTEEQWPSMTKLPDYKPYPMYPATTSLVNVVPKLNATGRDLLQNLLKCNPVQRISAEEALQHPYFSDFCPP
T2 sequence (Q15078 whole entry partner): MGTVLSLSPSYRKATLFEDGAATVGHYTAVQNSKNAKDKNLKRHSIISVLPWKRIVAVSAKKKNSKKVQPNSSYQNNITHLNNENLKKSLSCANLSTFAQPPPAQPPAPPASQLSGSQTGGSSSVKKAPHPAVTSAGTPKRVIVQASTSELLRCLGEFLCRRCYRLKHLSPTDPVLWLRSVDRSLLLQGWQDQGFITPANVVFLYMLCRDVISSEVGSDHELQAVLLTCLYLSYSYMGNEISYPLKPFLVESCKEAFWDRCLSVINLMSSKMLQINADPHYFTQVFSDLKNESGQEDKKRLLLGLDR
In words: CDK5/p35 kinase inhibition (33P-ATP, histone H1). In kind it is biochemical. As to conditions: 0.15 μM ATP. Here is the method: CDK2/Cyclin E kinase was produced in Sf9 insect cells via baculoviral infection and purified on a NiNTA column (Qiagen). […] CDK5/p35 was purchased from ProQinase GmbH.
as §1

Experiment [1] concerns K562 (human chronic myelogenous leukaemia). In words: MTT cytotoxicity assay, leukemic cell line K562. In kind it is cell-based. As to conditions: Homo sapiens, K562, 72 h, three days. The source says:
(§2) Cytotoxicity of the compounds is the major property determining their antileukemic efficacy in vivo. One of the parameters used, as the basis for cytotoxicity assays, is the metabolic activity of viable cells. For example, a microtiter assay, which uses (3-(4,5-dimethylthiazol-2-yl)-2,5-diphenyltetrazolium bromide (MTT), is widely used to quantitate cell proliferation and cytotoxicity. This assay is widely used in drug screening programs and in chemosensitivity testing. Because only metabolically active living cells reduce MTT to correspond purple formazan dye, these assays detect viable cells exclusively. The quantity of reduced MTT corresponds to the number of vital cells in the culture.
(§3) The compounds were assayed using the following leukemic cell lines: K562 (human chronic myelogenous leukaemia), HL60 (human promyelocytic leukaemia), CEM (human lymphoblastoid leukaemia), THP1 (human monocytic cell line), MV4; 11 (acute myelocytic leukemia). All cell lines were grown in RPMI medium supplemented with fetal bovine serum and L-glutamine and maintained at 37° C. in a humidified atmosphere with 5% CO2. For cytotoxicity assays, 2000-5000 cells were seeded into each well of 96 well plate, allowed to stabilize for at least 8 h and then tested compounds were added at various concentrations ranging from 100 to 0.01 μM in triplicates. After three days, MTT solution (5 mg/ml; Sigma, St. Louis, USA) was added to cells and medium was replaced with DMSO after five hours. The absorbance was measured at 620 nm by employing a microplate reader. MTT assays were repeated 3 times for each drug application and untreated cells were used as reference.

Experiment [2] concerns PANC-1 (pancreatic carcinoma). In words: MTT cytotoxicity assay, solid cancer cell line PANC-1. In kind it is cell-based. As to conditions: Homo sapiens, PANC-1, 72 h, three days. The method, then:
as §3, with “following” for “following leukemic”, “G361 (malignant melanoma), MCF7 (breast adenocarcinoma), PLC/PRF/5 (liver hepatoma), PANC-1 (pancreatic carcinoma) and HCT116 (colon carcinoma).” for “K562 (human chronic myelogenous leukaemia), HL60 (human promyelocytic leukaemia), CEM (human lymphoblastoid leukaemia), THP1 (human monocytic cell line), MV4; 11 (acute myelocytic leukemia).”, “DMEM” for “RPMI”, “4000-10000” for “2000-5000”, “of a” for “of”, “16” for “8”

Experiment [3] has as its system THP1 (human monocytic cell line). In words: MTT cytotoxicity assay, leukemic cell line THP1. In kind it is cell-based. As to conditions: Homo sapiens, THP-1, 72 h, three days.
From the text: as §2, §3

Experiment [4] deals with HL60 (human promyelocytic leukaemia). The experiment is described as follows: MTT cytotoxicity assay, leukemic cell line HL60. In kind it is cell-based. The settings on record: Homo sapiens, HL-60, 72 h, three days.
From the text: as §2, §3

Experiment [5] deals with MCF7 (breast adenocarcinoma). The experiment is described as follows: MTT cytotoxicity assay, solid cancer cell line MCF7. In kind it is cell-based. The settings on record: Homo sapiens, MCF7, 72 h, three days. The method, then: as §3, with “following” for “following leukemic”, “G361 (malignant melanoma), MCF7 (breast adenocarcinoma), PLC/PRF/5 (liver hepatoma), PANC-1 (pancreatic carcinoma) and HCT116 (colon carcinoma).” for “K562 (human chronic myelogenous leukaemia), HL60 (human promyelocytic leukaemia), CEM (human lymphoblastoid leukaemia), THP1 (human monocytic cell line), MV4; 11 (acute myelocytic leukemia).”, “DMEM” for “RPMI”, “4000-10000” for “2000-5000”, “of a” for “of”, “16” for “8”

The test system of experiment [6] is HUVECs (human umbilical vein endothelial cells). The experiment is described as follows: HUVEC migration (scratch) assay. In kind it is cell-based. As to conditions: 16 h, read-out: Inhibition of migration (EC50). The method, then: (§4) To verify that novel compounds have anti-vascularisation properties, we analyzed their influence on the proliferation and migration of HUVECs. HUVECs (human umbilical vein endothelial cells) were purchased from Promocell (Heidelberg, Germany) and cultured in endothelial cell growth medium (ECGM, Promocell, Heidelberg, Germany) containing 10% FCS (Biochrom, Berlin, Germany). Experiments were performed using cells at passage 3.
For migration assay, confluent HUVECs were scratched with a pipette tip and immediately treated with either starvation medium M199 (serum-free, negative control; PAN Biotech) or full endothelial cell growth medium (positive control). After 16 h, cells were fixed with 3% formaldehyde and images were taken using the TILLvisON system (Lochham, Germany) connected to an Axiovert 200 microscope (Zeiss, Germany). Evaluation of pictures was made by S.CO LifeScience (Garching, Germany). Migration was quantified as the ratio of the area covered with cells and the area of the cell free wound.

Experiment [7] relates to PLC/PRF/5 (liver hepatoma). The experiment is described as follows: MTT cytotoxicity assay, solid cancer cell line PLC/PRF/5. The settings on record: Homo sapiens, PLC-PRF-5, 72 h, three days. In kind it is cell-based. The method, then:
as §3, with “following” for “following leukemic”, “G361 (malignant melanoma), MCF7 (breast adenocarcinoma), PLC/PRF/5 (liver hepatoma), PANC-1 (pancreatic carcinoma) and HCT116 (colon carcinoma).” for “K562 (human chronic myelogenous leukaemia), HL60 (human promyelocytic leukaemia), CEM (human lymphoblastoid leukaemia), THP1 (human monocytic cell line), MV4; 11 (acute myelocytic leukemia).”, “DMEM” for “RPMI”, “4000-10000” for “2000-5000”, “of a” for “of”, “16” for “8”

For experiment [8], the system named is MV4;11 (acute myelocytic leukemia). The experiment is described as follows: MTT cytotoxicity assay, leukemic cell line MV4;11. In kind it is cell-based. As to conditions: Homo sapiens, MV4-11, 72 h, three days.
From the text: as §2, §3

Experiment [9] relates to G361 (malignant melanoma). The experiment is described as follows: MTT cytotoxicity assay, solid cancer cell line G361. In kind it is cell-based. The settings on record: Homo sapiens, G-361, 72 h, three days. The method, then:
as §3, with “following” for “following leukemic”, “G361 (malignant melanoma), MCF7 (breast adenocarcinoma), PLC/PRF/5 (liver hepatoma), PANC-1 (pancreatic carcinoma) and HCT116 (colon carcinoma).” for “K562 (human chronic myelogenous leukaemia), HL60 (human promyelocytic leukaemia), CEM (human lymphoblastoid leukaemia), THP1 (human monocytic cell line), MV4; 11 (acute myelocytic leukemia).”, “DMEM” for “RPMI”, “4000-10000” for “2000-5000”, “of a” for “of”, “16” for “8”

Experiment [10] concerns CEM (human lymphoblastoid leukaemia). In words: MTT cytotoxicity assay, leukemic cell line CEM. In kind it is cell-based. As to conditions: Homo sapiens, 72 h, three days.
From the text: as §2, §3

Experiment [11] relates to HUVECs (human umbilical vein endothelial cells). In words: HUVEC proliferation assay (crystal violet). In kind it is cell-based. The settings on record: Homo sapiens, HUVEC, 72 h, read-out: Inhibition of proliferation (EC50). The method, then:
as §4
For proliferation assay, 1.5×10^3 HUVECs were cultured for 24 h. Afterwards, cells were either left untreated or treated with novel compounds for 72 h. Proliferation assay was performed using crystal violet as described previously (Koltermann et al. 2007, Cell Mol. Life Sci. 64:1715-1722).

A further experiment deals with HCT116 (colon carcinoma). The experiment is described as follows: MTT cytotoxicity assay, solid cancer cell line HCT116. In kind it is cell-based. As to conditions: Homo sapiens, HCT-116, 72 h, three days. Here is the method: as §3, with “following” for “following leukemic”, “G361 (malignant melanoma), MCF7 (breast adenocarcinoma), PLC/PRF/5 (liver hepatoma), PANC-1 (pancreatic carcinoma) and HCT116 (colon carcinoma).” for “K562 (human chronic myelogenous leukaemia), HL60 (human promyelocytic leukaemia), CEM (human lymphoblastoid leukaemia), THP1 (human monocytic cell line), MV4; 11 (acute myelocytic leukemia).”, “DMEM” for “RPMI”, “4000-10000” for “2000-5000”, “of a” for “of”, “16” for “8”

Experiment [12] relates to breast carcinoma cell line MCF7. The experiment is described as follows: Cell cycle profile by BrdU/propidium iodide flow cytometry. In kind it is cell-based. As to conditions: asynchronously growing MCF7, 24 h, FIG. 1. Here is the method:
Sub-confluent cells were treated with test compounds at different concentrations for 24 h. The cultures were pulse-labeled with […] 5-bromo-20-deoxyuridine (BrdU) for 30 min at 37° C. prior to harvesting. The cells were then washed in PBS, fixed with 70% ethanol, and denatured in 2 M HCl. Following neutralization, the cells were stained with anti-BrdU fluorescein-labeled antibodies, washed, stained with propidium iodide and analyzed by flow cytometry using a 488 nm laser

As to `CC(C)c1[nH]nc2c(NCc3ccc(-c4ccccn4)cc3)nc(NC3CCCCC3N)nc12` (centres unmarked) [Compound 65], the IC50 on CDK2/Cyclin E was 0.023 µM; on CDK5/p35, 0.048 µM; in experiment [1], 0.3 µM; in experiment [2], 0.02 µM; in [3], 0.11 µM; in experiment [4], 0.22 µM. Also, the IC50 in [5] was 0.06 µM; in experiment [7], 0.05 µM; in experiment [8], 0.38 µM; in [9], 0.04 µM; in experiment [10], 0.14 µM; in the experiment with HCT116 (colon carcinoma), 0.08 µM. The EC50 was 77 nM in [6] and 5 nM in [11].
As for `CC(C)c1[nH]nc2c(NCc3ccc(-c4ccccn4)cc3)nc(NCCN3CCC3)nc12` [Compound 54], the IC50 was 0.322 µM against CDK2/Cyclin E; 0.204 µM at CDK5/p35; 0.36 µM in [1]; 0.37 µM in experiment [3]; 0.29 µM in experiment [4]; 0.24 µM in experiment [8]. The IC50 in experiment [10] was 0.24 µM.
For the molecule `CC(C)c1[nH]nc2c(NCc3ccc(-c4ccccn4)cc3)nc(NCCN(C)C)nc12` [Compound 47], the IC50 was 2.14 µM on CDK5/p35; 0.13 µM in [1]; 0.2 µM in experiment [2]; 0.06 µM in [3]; 0.09 µM in experiment [4]; 0.23 µM in [5]. In addition, the half-maximal inhibitory concentration (IC50) is 0.24 µM in [7]; 0.12 µM in [8]; 0.47 µM in experiment [9]; 0.07 µM in [10]; 0.34 µM in the experiment with HCT116 (colon carcinoma). Also, in experiment [12], the “effect on the cell cycle of MCF7” value was “potently arrested cells in S, G2 and M phases”. Besides, in experiment [11], the EC50 turned out to be 181 nM.
As to `CC(C)c1[nH]nc2c(NCc3ccc(-c4ccccn4)cc3)nc(NCCCO)nc12` [Compound 29], the IC50 against CDK2/Cyclin E was found to be 0.039 µM; against CDK5/p35 it was 0.0149 µM; in experiment [1], 0.1 µM; in [3], 0.14 µM; in [4] it was 0.18 µM; in experiment [8], 0.27 µM. Moreover, the IC50 in experiment [10] amounted to 0.09 µM.
Turning to `CC(C)c1n[nH]c2c(NCc3ccc(-c4ccccn4)cc3)nc(N[C@@H]3CCCC[C@H]3N)nc12` (relative stereo) [Compound 64], the IC50 was 0.046 µM against CDK2/Cyclin E; 0.088 µM against CDK5/p35; 0.1 µM in experiment [1]; 0.08 µM in [2]; 0.04 µM in experiment [3]; 0.09 µM in experiment [4]. Moreover, the IC50 in experiment [5] turned out to be 0.22 µM; in experiment [7], 0.14 µM; in experiment [8] it was 0.09 µM; in experiment [9], 0.15 µM; in [10], 0.05 µM; in the experiment on HCT116 (colon carcinoma), 0.34 µM.
